We go through eight compounds from patent US4608381A, “Antiinflammatory 2-(trifluoroethylsulfonyl)benzimidazoles” (Boehringer Ingelheim Pharmaceuticals, Inc., priority 1985, dated 1986).

The subject of one assay is male CD rats. Briefly: Adjuvant-Induced Developing Arthritis Assay. Format: in vivo. The settings on record: Rattus norvegicus, po, 336 h, 14 days from adjuvant injection, non-injected hind paw volume; for inhibition in vivo at 25 mg/kg: 25 mg/kg orally once daily; for inhibition in vivo at 50 mg/kg: 50 mg/kg orally once daily. An excerpt: This assay is used to determine the ability of compounds to affect the immunological processes involved in the induction and development of arthritis and represents a standard model for which there is good correlation with human efficacy. It is described and discussed in Newbould, B. B., Chemotherapy of Arthritis Induced in Rats by Mycobacterial Adjuvant., Brit. J. Pharmacol. 21:127-136 (1963) and Federation Proceedings, Models Used for the Study and Therapy of Rheumatoid Arthritis - Symposium of the American Society for Pharmacology and Experimental Therapeutics, Vol. 32, No. 2 (1973). The procedural details and results observed in the experiments reported here are as follows.
(§1) Polyarthritis is induced in male CD rats (150-170 g) as follows. Heat-killed Mycobacterium butyricum (0.1 ml of a […] 5 mg/ml adjuvant suspension in light mineral oil) is injected subcutaneously into the plantar surface of the right hind foot of each animal. At least 10 rats are used in each test group. Animals are dosed orally with one of the compounds under assay immediately after adjuvant injection, and once daily for a total of 14 days. Untreated normal and arthritic control groups are used as comparison for test compound effect. Foot volumes are measured 24 hours after the final dose by mercury displacement to the lateral malleolus. Mean displacement volumes and their standard errors are calculated for the non-injected hind paws.
The results are expressed as the percent of the mean displacement volume of the control observed in animals treated with the specified compound at the indicated daily dosage level and are as set forth in Table 1: […]

Assay [1] concerns Rats in which polyarthritis has become established. As to the kind of experiment: Adjuvant-Induced Established Arthritis Assay. Format: in vivo, rat. Particulars: days 14-27, non-injected paw volume. As to the method: as §1
This assay is used to determine the ability of compounds to affect an established chronic inflammatory condition.
Polyarthritis is induced as described in Example 8. Rats in which polyarthritis has become established are selected 14 days after receiving the adjuvant suspension. They are treated daily with oral doses of test compound for 14 days (days 14-27). Foot volumes of the non-injected paws are measured as in 8, 24 hours after the final dose. Untreated arthritic control groups are used as comparison for test compound effect as described in Example 8.

SMILES strings stand for the structures.

Turning to `O=S(=O)(CC(F)(F)F)c1nc2cc(F)ccc2[nH]1` [Example 5, 5-Fluoro-2-(2,2,2-trifluoroethylsulfonyl)-1H-benzimidazole], in the assay on male CD rats, the inhibition in vivo – broadly, the share of the control response that was lost under treatment – at 25 mg/kg is 43%.
Same read-out and setting: in the case of `CCc1ccc2[nH]c(S(=O)(=O)CC(F)(F)F)nc2c1` [Example 7, 5-Ethyl-2-(2,2,2-trifluoroethylsulfonyl)-1H-benzimidazole] it was 34%.
With `O=S(=O)(CC(F)(F)F)c1nc2ccccc2[nH]1` [Example 4, 2-(2,2,2-Trifluoroethylsulfonyl)-1H-benzimidazole], in the assay with male CD rats, the inhibition in vivo at 25 mg/kg turned out to be 52%. Further, the % Inhibition (commonly the relative decrease from the control value, in per cent) in assay [1] (50 mg/kg orally daily) is given as 45%.
Take `Cc1ccc2[nH]c(S(=O)(=O)CC(F)(F)F)nc2c1` [Example 1, 5-Methyl-2-(2,2,2-trifluoroethylsulfonyl)-1H-benzimidazole]: the inhibition in vivo at 25 mg/kg with male CD rats is 52%. Further, in the assay with male CD rats, the inhibition in vivo at 50 mg/kg stood at 72%. The “% Inhibition” value stood at 30% in assay [1] (50 mg/kg orally daily), 42% in assay [1] (75 mg/kg orally daily) and 60% in assay [1] (100 mg/kg orally daily).
In the case of `O=S(=O)(CC(F)(F)F)c1nc2cc(Cl)ccc2[nH]1` [Example 2, 5-Chloro-2-(2,2,2-trifluoroethylsulfonyl)-1H-benzimidozole], the inhibition in vivo at 25 mg/kg with male CD rats was 28%.
As to `O=S(=O)(CC(F)(F)F)c1nc2cc(Cl)c(Cl)cc2[nH]1` [Example 3, 5,6-Dichloro-2-(2,2,2-trifluoroethylsulfonyl)-1H-benzimidazole], the inhibition in vivo at 25 mg/kg in the assay on male CD rats stood at 24%.
In the case of `Cc1cc2nc(S(=O)(=O)CC(F)(F)F)[nH]c2cc1C` [Example 6, 5,6-Dimethyl-2-(2,2,2-trifluoroethylsulfonyl)-1H-benzimidazole], the inhibition in vivo at 25 mg/kg in the assay with male CD rats is 18%.
Consider `Cc1cc2nc(S(=O)(=O)CC(F)(F)F)[nH]c2cc1F` [Example 8, 6-Fluoro-5-methYl-2-(2,2,2-trifluoroethylsulfonyl)-1H-benzimidazole], for which the inhibition in vivo at 50 mg/kg in the assay on male CD rats worked out at 64%.
